Data on one molecule can be found in patent US9415035B2, “Compositions containing omega-3 oil with an anti-inflammatory agent and uses thereof” (Maine Natural Health Company, Inc., priority 2010, dated 2016).

The assay relates to companion animals (cats and dogs). The assay is described as follows: Companion animal mobility, further addition of glucosamine. As to conditions: glucosamine added to OmegaMaine omega-3 oil; data not shown. The format is in vivo. Set-up: dose or concentration left out as unconfirmed. Here is the method:
Cats (n=5) were given 2.5 mL (½ teaspoon) of OmegaMaine liquid omega-3 oil by adding directly to their food. Dogs (n=5) were given 5 mL (1 teaspoon) of OmegaMaine omega-3 oil by adding directly to their food. For reference, 5 mL of OmegaMaine omega-3 oil contains, minimally, 800 mg of EPA, and, minimally, 750 mg of DHA. Animals were scored on a scale of 1 to 10, where 10 was behavior like a kitten or a puppy and 1 was severe immobility. All animals in the test group average 8 years of age. Animals were evaluated prior to treatment and 2 weeks after daily treatment with OmegaMaine omega-3 oil (Table 4).

Structures are written as SMILES.

In the case of `N[C@H]1C(O)O[C@H](CO)[C@@H](O)[C@@H]1O` (stereo partly shown) [glucosamine], the “therapeutic benefit on mobility” value was “additional therapeutic benefit”.
